Results as given in patent EP1263444B1, “USE OF XANTHINE DERIVATIVES FOR PREPARING A MEDICINE FOR PREVENTING AND TREATING OSTEOPOROSIS” (Aventis Pharma S.A., priority 2000, dated 2001).

What was measured:
Type in all cases: in vivo
[1] = tested on: rate ovariectomisée; assay: Serum cholesterol level in the ovariectomised rat model; conditions: 10 mg/kg po, 4 weeks, decrease of serum cholesterol in % versus OVX animals receiving solvent only
Source text: (§1) L'impact osseux des dérivés de xanthine selon l'invention a été évalué sur un modèle d'ostéopénie, la rate ovariectomisée à l'âge de 3 mois, afin de déterminer son effet sur la masse osseuse, et sur l'activité de formation et de résorption osseuse sur ce modèle. Les animaux sont traités en préventif.
(§2) Sur ce modèle d'ostéopénie l'effet d'un dérivé xanthine est comparé à celui de la PTH • Produit à tester : Le [1-(3-phénylxanthin-1-yl)méthyl] diméthylphosphine oxide • véhicule(s) : méthylcellulose 0,5 % ou sérum physiologique • dose(s) : 10 mg/kg pour le produit. la PTH est administrée à la dose de 10 et 25 µg/kg/j par voie sous cutanée • nombre d'administrations : une fois/jour; 5 jours/semaine pendant 4 semaines • voie d'administration : voie orale pour le produit. La PTH est administrée par voie sous cutanée • volume : 1 ml/kg p o et s c • délai entre l'injection et le sacrifice : 24 heures • nombre d'administrations : 20.
(§3) Des rats femelles âgées de 3 mois et pesant environ 250-300 g sont ovariectomisées sous anesthésie à l'Imalgène 1000, à la dose de 100 mg/kg par voie intrapéritonéale (i.p) et sous un volume de 1 ml/kg. Ils reçoivent également du Nembutal (3 mg/kg i.p. sous un volume de 0,3 ml/kg). Les animaux sont répartis en groupes de 8 rats.
(§4) Après incision latérale, les plans cutanés et musculaires sont sectionnés. L'exérèse de chaque ovaire se fait après ligature de l'oviducte. […]

[2] = tested on: rate ovariectomisée; assay: Uterus weight in the ovariectomised rat model; conditions: 10 mg/kg po, 4 weeks, weight increase in % of uterus weight of OVX animals receiving solvent only
Source text: as §1, §2, §3, §4

[3] = tested on: rate ovariectomisée; assay: Bone mineral density (DEXA) of the left tibia in the ovariectomised rat osteopenia model, preventive treatment; conditions: 10 mg/kg po, once daily, 5 days/week for 4 weeks; (BMD treated - BMD OVX)/(BMD SHAM - BMD OVX) x 100
Source text: as §1, §2, §3, §4

CP(C)(=O)Cn1c(=O)c2[nH]cnc2n(-c2ccccc2)c1=O [Dérivé xanthine, [1-(3-phénylxanthin-1-yl)méthyl] diméthylphosphine oxide]
Cholestérol % [1]: Pas d'effet
Cholestérol % ([1]; listed as Ce produit): pas d'effet
UTERUS Poids % [2]: 10%
UTERUS Poids % ([2]; listed as Ce produit): aucune activité utérotrophique
OS TIBIA Densité % [3]: 40%
